The IC50 is the concentration that inhibits the measured activity by half. What is called half-life is the time in which the quantity being followed falls by half. Read a low half-life as fast loss. As a reminder, the Cmax is the highest concentration seen after dosing.

Series [1] concerns the target ERK1 kinase (Homo sapiens (Human), UniProt P27361). Nature of the series: ERK1 in vitro kinase activity assay (33P-ATP, MBP substrate, filter-binding). The format is biochemical. Here is the method:
The ability of the compound to inhibit ERK1 and ERK2 kinase activity was measured.
20 mM Hepes (pH 7.5), 10 mM MgCl2, 1 mM ethylenebis(oxyethylenenitrilo)tetraacetic acid (EGTA), 0.02% Brij35, 0.02 mg/mL bovine serum albumin (BSA), 0.1 mM Na3VO4, 2 mM dithiothreitol (DTT), 1% DMSO.
The assay compound was dissolved in 100% DMSO to prepare a stock solution of specific concentration. The compound was serially diluted in DMSO solution using Integra Viaflo Assist smart pipette.
• 1) The substrate MBP was prepared in freshly prepared reaction buffer; • 2) ERK1 (or ERK2) kinase was added to the above-mentioned MBP solution and mixed gently; • 3) The compound dissolved in 100% DMSO was added to the kinase reaction system using ultrasound technology (Echo550; nanoliter range), and the mixture was incubated at room temperature for 20 minutes; • 4) 33P-ATP (specific concentration of […]) was added to the reaction system, and the reaction was started at this time; • 5) The mixture was incubated at room temperature for 2 hours; • 6) The amount of radioactivity was detected by filter-binding method; • 7) ERK1 (or ERK2) kinase activity was calculated as the ratio of the remaining kinase activity in the assay sample to the kinase activity of the control group (treated by DMSO). Curve was fitted using Prism (GraphPad software) and IC50 values were calculated. • 5.

The nature of series [2]: In vivo PK study in mice. On the set-up: species or system mouse. The note with it: female BALB/c mice. The source says:
Female BALB/c mice were used as assay animals to determine the blood concentration of the compound and evaluate the pharmacokinetic behavior after a single administration.
Four healthy adult female BALB/c mice were selected, wherein 2 mice were in an intravenous injection group and 2 mice were in an oral group. The vehicle in the intravenous injection group was 5% DMSO+95% (20% HP-β-CD). The compound to be assayed was mixed with an appropriate amount of vehicle for intravenous injection, vortexed and sonicated to prepare a clear solution of 0.5 mg/mL. The clear solution was filtered by a microporous membrane, and then ready for use. The vehicle in the oral group was 5% DMSO+95% (20% HP-β-CD). The compound to be assayed was mixed with the vehicle, vortexed and sonicated to prepare a solution of 0.3 mg/mL. Mice were administered 1 mg/kg intravenously or 3 mg/kg orally, and then whole blood was collected for a certain period. Plasma was prepared. The drug concentration was analyzed by LC-MS/MS method, and the pharmacokinetic parameters were calculated by Phoenix WinNonlin software (Pharsight, USA).

In series [3] the target is hERG potassium channel (Homo sapiens (Human), UniProt Q12809). Briefly: hERG assay (automated patch-clamp, CHO-hERG cells). It counts as cell-based. The conditions noted are these: Qpatch, highest assayed concentration 40 μM. Here is the method:
A fully automated patch-clamp method was used to assay the effect of the compound on hERG potassium channel (human Ether-a-go-go Related Gene potassium channel) current.
CHO-hERG cells were cultured in a 175 cm^2 culture flask. When cells grew to a density of 60˜80%, the culture medium was removed. Cells were washed once with 7 mL of PBS (Phosphate Buffered Saline), and then 3 mL of Detachin was added for digestion. After the digestion was completed, 7 mL of culture medium was added for neutralization, and then the mixture was centrifuged. The supernatant was aspirated, and then 5 mL of culture medium was added to resuspend the cells and ensure that the cell density was 2˜5×10^6/mL.
Extracellular solution formulation (mM): 140 NaCl, 5 KCl, 1 CaCl2), 1.25 MgCl2, 10 HEPES and 10 Glucose: the formulation was adjusted to pH of 7.4 with NaOH. […]
The single-cell high-impedance sealing and whole-cell pattern formation processes were all automatically performed by a Qpatch instrument. […] This voltage stimulation was applied every 15 seconds, and recorded for 2 minutes. The extracellular solution was then given, and recorded for 5 minutes. […]
Assay data were analyzed by GraphPad Prism 5.0 software. […]
The inhibitory effect of Cisapride with multiple concentrations on the hERG channel was measured as a positive control.
For orientation: Block of hERG is tested as a sign of cardiac risk.

Some results are limits rather than exact numbers.

Chain of hERG potassium channel (Q12809 whole entry): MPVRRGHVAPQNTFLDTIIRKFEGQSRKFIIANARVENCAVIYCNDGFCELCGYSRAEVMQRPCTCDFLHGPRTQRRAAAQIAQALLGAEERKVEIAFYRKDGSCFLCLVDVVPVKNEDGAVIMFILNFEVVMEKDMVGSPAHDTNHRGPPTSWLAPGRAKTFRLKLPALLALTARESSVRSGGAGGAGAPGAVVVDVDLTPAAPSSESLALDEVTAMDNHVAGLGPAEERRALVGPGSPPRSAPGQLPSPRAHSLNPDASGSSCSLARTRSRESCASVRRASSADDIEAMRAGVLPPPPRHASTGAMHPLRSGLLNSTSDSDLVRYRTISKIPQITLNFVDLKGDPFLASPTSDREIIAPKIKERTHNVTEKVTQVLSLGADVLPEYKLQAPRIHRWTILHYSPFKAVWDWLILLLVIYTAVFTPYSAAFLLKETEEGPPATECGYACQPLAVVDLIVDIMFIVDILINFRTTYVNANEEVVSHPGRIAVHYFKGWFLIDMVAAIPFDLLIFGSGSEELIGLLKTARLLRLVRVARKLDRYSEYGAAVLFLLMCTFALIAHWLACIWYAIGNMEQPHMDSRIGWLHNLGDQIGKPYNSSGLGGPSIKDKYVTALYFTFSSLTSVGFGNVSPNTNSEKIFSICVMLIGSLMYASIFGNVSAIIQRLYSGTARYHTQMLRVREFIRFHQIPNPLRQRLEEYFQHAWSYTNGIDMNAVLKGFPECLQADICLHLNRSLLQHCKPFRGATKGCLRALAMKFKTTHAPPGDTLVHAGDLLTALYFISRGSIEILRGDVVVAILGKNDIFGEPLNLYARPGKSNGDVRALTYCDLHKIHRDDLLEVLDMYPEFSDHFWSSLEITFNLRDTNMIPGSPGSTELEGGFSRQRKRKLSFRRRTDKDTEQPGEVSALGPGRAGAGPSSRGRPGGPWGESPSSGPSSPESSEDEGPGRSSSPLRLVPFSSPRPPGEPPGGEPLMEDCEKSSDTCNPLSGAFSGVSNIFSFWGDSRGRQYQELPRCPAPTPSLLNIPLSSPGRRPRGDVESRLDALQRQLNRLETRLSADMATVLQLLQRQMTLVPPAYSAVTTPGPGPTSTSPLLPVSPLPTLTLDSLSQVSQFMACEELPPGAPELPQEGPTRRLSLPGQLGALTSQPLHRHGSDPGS
Chain of ERK1 kinase (P27361 whole entry): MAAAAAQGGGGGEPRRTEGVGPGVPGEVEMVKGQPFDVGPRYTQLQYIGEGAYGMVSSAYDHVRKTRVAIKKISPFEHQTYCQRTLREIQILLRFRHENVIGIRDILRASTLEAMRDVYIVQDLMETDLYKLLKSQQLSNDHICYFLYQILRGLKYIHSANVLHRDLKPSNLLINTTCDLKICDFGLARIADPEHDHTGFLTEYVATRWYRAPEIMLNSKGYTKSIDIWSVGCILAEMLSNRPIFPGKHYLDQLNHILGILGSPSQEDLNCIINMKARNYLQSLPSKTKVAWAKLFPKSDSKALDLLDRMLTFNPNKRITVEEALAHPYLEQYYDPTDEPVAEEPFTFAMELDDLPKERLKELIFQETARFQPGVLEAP

Take `Cc1cccc(CN2C(=O)c3nc(-c4nc(Nc5ccnn5C)ncc4C)sc3C23COC3)n1` [WX001]: the IC50 was 1.4 nM in series [1] and greater than 40000 nM in series [3]. Further, in series [2] (3 mg/kg orally, AUCPO/Dose), the “Oral DNAUC” value is 2935 nM · h/mpk. Moreover, the clearance in series [2] (mouse, plasma, intravenous, 1 mg/kg intravenously or 3 mg/kg orally) came to 18.9 mL/min/kg. For the same molecule, in series [2] (mouse, plasma, intravenous, 1 mg/kg intravenously or 3 mg/kg orally, read-out: Vdss), the Vd was 1.23 L/kg. The same molecule gave a half-life in series [2] (mouse, plasma, 1 mg/kg intravenously or 3 mg/kg orally) of 1.1 h. Moreover, the bioavailability in series [2] (mouse, plasma, 1 mg/kg intravenously, 3 mg/kg orally, oral bioavailability) stood at 154%. In addition, the Cmax in series [2] (mouse, single dose, 1 mg/kg intravenously or 3 mg/kg orally, plasma) turned out to be 4.79 µM.

The values are drawn from patent US20240309018A1, “THIAZOLE-LACTAM-SPIROHETEROCYCLIC COMPOUNDS AND APPLICATIONS THEREOF” (D3 BIO (WUXI) CO., LTD, priority 2021, published 2024).
